In PMC6886544:

Legend:
[1] = target: FGFR2 (Homo sapiens, UniProt P21802); assay: SelectScreen kinase profiling, FGFR2; type: biochemical; settings: mean ± SD of one measurement in duplicates
Procedure: (§1) Kinase profiling of compound 17a at a concentration of 1 µM generated with the SelectScreen® Profiling Service from Life Technologies.
(§2) Figure S2. Kinase profiling of compound 17a, Illustration as waterfall plot. 9 Kinases harboring a Cysteine isostructural to Cys797 in EGFR are highlighted
(§3) Kinase % inhibition Kinase % inhibition […]
(§4) aValues are the mean ± SD of one measurement in duplicates; bKinases harboring a Cysteine isostructural to Cys797 […]
(§5) (1 picture or pasted object on this page, not shown here)

[2] = target: SRC-N1 (Homo sapiens, UniProt P12931); assay: SelectScreen kinase profiling, SRC-N1; type: biochemical; settings: mean ± SD of one measurement in duplicates
Sequence of SRC-N1 (P12931 1-542 isoform P12931-2): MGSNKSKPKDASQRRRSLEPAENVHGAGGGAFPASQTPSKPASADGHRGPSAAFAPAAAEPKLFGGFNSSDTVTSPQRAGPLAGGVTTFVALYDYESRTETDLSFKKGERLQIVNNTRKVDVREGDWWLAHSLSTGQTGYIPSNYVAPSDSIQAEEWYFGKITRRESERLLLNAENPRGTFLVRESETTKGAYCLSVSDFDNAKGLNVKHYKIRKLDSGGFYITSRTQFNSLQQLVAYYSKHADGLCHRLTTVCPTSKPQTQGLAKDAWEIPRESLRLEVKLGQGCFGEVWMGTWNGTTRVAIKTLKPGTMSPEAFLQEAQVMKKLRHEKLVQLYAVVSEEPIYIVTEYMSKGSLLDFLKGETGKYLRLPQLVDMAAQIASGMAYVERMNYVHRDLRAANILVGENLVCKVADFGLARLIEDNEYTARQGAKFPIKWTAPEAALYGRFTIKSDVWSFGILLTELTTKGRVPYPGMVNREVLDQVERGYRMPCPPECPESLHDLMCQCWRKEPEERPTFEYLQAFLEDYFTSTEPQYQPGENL
Procedure: as §1, §2, §3, §4, §5

[3] = target: EGFR-L861Q (Homo sapiens, UniProt P00533, L861Q); assay: SelectScreen kinase profiling, EGFR-L861Q; type: biochemical; settings: mean ± SD of one measurement in duplicates
Sequence of EGFR-L861Q (P00533 668-1210 L861Q limits assumed): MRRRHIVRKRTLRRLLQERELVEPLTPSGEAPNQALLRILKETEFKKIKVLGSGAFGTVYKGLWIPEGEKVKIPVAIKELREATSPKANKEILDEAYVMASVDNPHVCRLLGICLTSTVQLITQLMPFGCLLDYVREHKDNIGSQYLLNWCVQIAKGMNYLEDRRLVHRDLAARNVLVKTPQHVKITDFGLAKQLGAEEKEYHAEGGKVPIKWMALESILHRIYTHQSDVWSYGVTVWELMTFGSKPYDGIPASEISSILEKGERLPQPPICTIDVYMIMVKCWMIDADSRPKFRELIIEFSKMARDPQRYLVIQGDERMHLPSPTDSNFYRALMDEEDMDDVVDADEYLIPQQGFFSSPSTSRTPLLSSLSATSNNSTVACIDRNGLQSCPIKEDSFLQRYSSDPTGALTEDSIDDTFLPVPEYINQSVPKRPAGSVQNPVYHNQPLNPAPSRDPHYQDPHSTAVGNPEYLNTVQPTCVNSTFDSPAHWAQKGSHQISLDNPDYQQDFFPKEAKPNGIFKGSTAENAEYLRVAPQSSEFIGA
Procedure: as §1, §2, §3, §4, §5

[4] = Plasma stability, mouse; type: in vitro ADME; settings: 5 µM, 1 h, 37 °C
[5] = PAMPA (parallel artificial membrane permeability assay); type: in vitro ADME; settings: pH 7.4, 500 µM, 16 hours
Procedure: masses and 0.02 Da for fragment ions. FDR was adjusted to 1% on peptide spectrum match […]
Microsomal stability (phase I) assay.
Metabolic stability under oxidative conditions was measured in liver microsomes from different species by LC/MS-based measuring of depletion of compound at a concentration of 3 µM over time up to 50 minutes (HLM) or 60 minutes (MLM) at 37 °C. Based on the compound half-life t1/2, the in vitro intrinsic clearance CLint was calculated.
Plasma stability was measured by LC/MS-based determination of the percentage of remaining compounds at a concentration of 5 µM after incubation in plasma obtained from different species […]
Assessment of plasma protein binding was measured by equilibrium dialysis by incubating plasma with the compound of interest at a concentration of 5 µM for 6 h at 37 °C followed by LC/MS-based determination of final compound concentrations.
PAMPA (Parallel artificial membrane permeability assay). […]
temperature in a wet chamber, the optical density of the solution in the receiver well was measured between 250 and 500 nm in intervals of 10 nm. The percent flux was calculated from […]

[6] = target: EGFR-L858R/T790M (Homo sapiens, UniProt P00533, L858R/T790M); assay: Kinetic characterization (Ki, kinact), EGFR-L858R/T790M
Sequence of EGFR-L858R/T790M (P00533 25-1210 T790M/L858R): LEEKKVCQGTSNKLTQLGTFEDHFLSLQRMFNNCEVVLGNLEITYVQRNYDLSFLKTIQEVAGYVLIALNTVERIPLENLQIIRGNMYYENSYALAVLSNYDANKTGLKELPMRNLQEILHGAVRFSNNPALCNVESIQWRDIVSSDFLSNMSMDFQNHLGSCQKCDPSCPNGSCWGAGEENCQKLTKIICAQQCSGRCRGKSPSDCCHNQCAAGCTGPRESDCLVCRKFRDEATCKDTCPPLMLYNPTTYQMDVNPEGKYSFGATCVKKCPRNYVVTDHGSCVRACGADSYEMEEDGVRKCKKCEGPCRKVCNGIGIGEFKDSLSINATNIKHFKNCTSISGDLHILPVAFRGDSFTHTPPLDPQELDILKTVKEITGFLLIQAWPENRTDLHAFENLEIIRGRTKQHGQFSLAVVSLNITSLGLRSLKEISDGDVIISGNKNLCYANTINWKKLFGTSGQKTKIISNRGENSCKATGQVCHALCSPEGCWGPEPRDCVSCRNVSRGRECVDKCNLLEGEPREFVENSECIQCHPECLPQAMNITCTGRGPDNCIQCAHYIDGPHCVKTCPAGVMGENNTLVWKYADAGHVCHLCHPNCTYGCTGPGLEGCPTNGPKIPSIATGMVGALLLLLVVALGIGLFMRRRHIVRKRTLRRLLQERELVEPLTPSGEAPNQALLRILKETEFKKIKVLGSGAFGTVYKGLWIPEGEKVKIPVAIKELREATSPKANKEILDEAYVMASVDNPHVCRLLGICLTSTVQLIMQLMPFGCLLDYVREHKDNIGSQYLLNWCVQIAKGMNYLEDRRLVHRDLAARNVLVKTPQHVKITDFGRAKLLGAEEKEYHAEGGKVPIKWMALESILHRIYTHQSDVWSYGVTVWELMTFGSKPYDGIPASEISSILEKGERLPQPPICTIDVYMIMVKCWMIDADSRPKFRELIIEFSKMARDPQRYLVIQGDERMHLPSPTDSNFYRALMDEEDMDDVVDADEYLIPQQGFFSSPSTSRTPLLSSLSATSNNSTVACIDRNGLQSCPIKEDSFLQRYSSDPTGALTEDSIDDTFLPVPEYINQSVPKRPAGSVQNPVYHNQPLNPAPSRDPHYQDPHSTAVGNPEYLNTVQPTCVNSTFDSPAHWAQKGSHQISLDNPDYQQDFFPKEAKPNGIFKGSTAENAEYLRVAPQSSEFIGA

[7] = target: EGFR-T790M (Homo sapiens, UniProt P00533, T790M); assay: Mass spectrometry analysis of covalent bond formation; type: binding; parameters: made in house; host or cells: Sf9 insect cells (BacMagic system); settings: EGFR-T790M incubated with inhibitor on ice for 1 h
Sequence of EGFR-T790M (P00533 712-979 T790M limits assumed): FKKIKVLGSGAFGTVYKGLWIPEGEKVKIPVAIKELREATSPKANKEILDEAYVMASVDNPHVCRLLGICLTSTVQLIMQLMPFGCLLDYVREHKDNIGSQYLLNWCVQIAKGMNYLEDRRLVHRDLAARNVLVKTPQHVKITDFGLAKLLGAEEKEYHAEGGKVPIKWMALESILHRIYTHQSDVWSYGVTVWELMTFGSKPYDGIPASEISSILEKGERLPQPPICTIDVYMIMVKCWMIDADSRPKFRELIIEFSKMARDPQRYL
Source text: captured and quantified using a FUJI LAS3000 system with Science Lab 2001 ImageGauge 4.0 software (Fujifilm Medial Systems, Stamford CT, USA).
Rabbit antibodies specific for phospho-EGFR (Tyr1045), EGFR, Akt, phospho-Akt (Ser473), p42/44 mitogen-activated protein kinase (MAPK), phospho-p44/42 MAPK (Thr202/Tyr204), S6 ribosomal protein, phospho-S6 ribosomal protein (Ser235/236), mouse anti-β-actin antibody as well as HRP-conjugated anti-rabbit and anti-mouse secondary antibodies were purchased from Cell Signaling (Frankfurt, Germany; Beverly, MA).
Mass spectrometry experiments.
We used the drug-resistant mutant EGFR-T790M variant for MS experiments. We incubated a […]
glycerol, 1 mM TCEP, pH 8) on ice for 1 h. We analyzed the aliquots by ESI-MS using an Thermo Fisher Scientific Dionex UltiMate 3000 HPLC system connected to a Thermo Fisher Scientific Velos Pro (2d ion trap). Therefore, 5 μL of sample was injected and separated using a Vydac 214TP C4 5 μm column (150 mm x 2.1 mm) starting at 20% of solvent B for 5 minutes followed by a gradient up to 90% of solvent B over 14 min with a flow rate of 210 μL/min with 0.1% TFA in water as solvent A and 0.1% TFA in MeCN as solvent B. A mass range of 700 to 2000 m/z was scanned and raw data was deconvoluted and analyzed with MagTran software (Z.Q. Zhang, A.G. […]

Sequence of FGFR2 (P21802 22-821): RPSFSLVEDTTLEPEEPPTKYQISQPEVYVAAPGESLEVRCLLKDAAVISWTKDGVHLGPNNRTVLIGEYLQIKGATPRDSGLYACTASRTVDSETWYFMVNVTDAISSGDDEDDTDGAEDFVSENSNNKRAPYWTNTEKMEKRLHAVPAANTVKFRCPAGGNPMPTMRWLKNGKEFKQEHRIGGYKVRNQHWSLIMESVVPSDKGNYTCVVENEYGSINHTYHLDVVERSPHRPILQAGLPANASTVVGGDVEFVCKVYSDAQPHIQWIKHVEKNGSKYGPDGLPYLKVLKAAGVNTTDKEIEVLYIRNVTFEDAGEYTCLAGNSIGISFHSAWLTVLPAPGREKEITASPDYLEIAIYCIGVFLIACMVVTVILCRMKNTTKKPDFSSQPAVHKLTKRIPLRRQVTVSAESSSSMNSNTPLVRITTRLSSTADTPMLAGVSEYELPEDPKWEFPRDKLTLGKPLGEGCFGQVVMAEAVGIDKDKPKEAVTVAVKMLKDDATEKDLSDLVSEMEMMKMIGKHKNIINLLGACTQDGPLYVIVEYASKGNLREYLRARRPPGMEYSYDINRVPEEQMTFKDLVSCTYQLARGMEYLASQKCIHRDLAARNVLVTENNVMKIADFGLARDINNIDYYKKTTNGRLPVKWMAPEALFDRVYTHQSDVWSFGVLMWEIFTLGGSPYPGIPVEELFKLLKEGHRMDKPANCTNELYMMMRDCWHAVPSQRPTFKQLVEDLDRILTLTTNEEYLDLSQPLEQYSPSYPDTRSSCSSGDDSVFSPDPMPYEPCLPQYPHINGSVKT

With `C=CC(=O)Nc1cccc(-c2c(-c3ccc(CN4CCN(C)CC4)cc3)[nH]c3ncnc(OC)c23)c1` [Compound 17a] the inhibition at 1 µM [1] was 76 ± 1%, the inhibition at 1 µM [2] was 95 ± 1% and the inhibition at 1 µM [3] was 96 ± 2%.
`C=CC(=O)Nc1cccc(-c2c(-c3ccc(N4CCN(C)CC4)cc3)[nH]c3ncnc(OCC(C)C)c23)c1` [Compound 19h] showed a Plasma stability [4] of 100 %remain, a PAMPA flux [5] of 88% and a Ki [6] of 400 ± 100 pM. For the same compound, the kinact [6] was 0.00283 s⁻¹, the kinact/KI [6] was 8.08e+06 ± 770000 M⁻¹ s⁻¹ and the “covalent labelling by tandem mass spectrometry” value [7] was “specific single alkylation of Cys797”.
